Laboratory results: patent publication US20110224215A1, “PRE-SURGICAL TREATMENT” (GALDERMA LABORATORIES, INC., priority 2007, published 2011)

Experiments:
[1] = system: area of skin where the incision will be made; conditions: bandage soaked in a solution of 0.25%, applied thirty minutes prior to surgery, removed immediately before incision
Text: Thirty minutes prior to undergoing surgery for an appendectomy, a bandage that is soaked in a solution of 0.25% brimonidine is applied to the area of skin where the incision will be made. The bandage is removed immediately before the incision is made.

[2] = system: patients undergoing LASIK surgery; conditions: prophylactic dosages prior to LASIK surgery for primary myopia/myopic astigmatism or hyperopic astigmatism; cited from earlier work
facial skin = conditions: 0.10% in a gel formulation, applied to facial skin fifteen minutes prior to shaving
Text: Fifteen minutes prior to shaving, a person applies 0.10% brimonidine tartrate in a gel formulation to the facial skin where they will shave.

## Brc1c(N=C2NCCN2)ccc2nccnc12 [brimonidine, 5-bromo-6-(2-imidazolidinylideneamino)quinoxaline]
[1]
  bleeding and bruising following the surgical procedure: will significantly reduce bleeding and bruising
[2]
  hyperemia: less hyperemia
  occurrence of subconjunctival hemorrhage: less occurrence

## Brc1c(N=C2NCCN2)ccc2nccnc12.O=C(O)C(O)C(O)C(=O)O [brimonidine tartrate, 5-bromo-6-(2-imidazolidinylideneamino) quinoxaline L-tartrate]
Facial skin
  bleeding from cuts while shaving: will prevent excessive bleeding
